This assay deals with HCT116 cells. In words: Cytokinesis blocked micronucleus (CBMN) assay. The class given is cell-based, human. The settings on record: RPS27L-depleted HCT116 cells, ADR (1 μM) 24 h. As to the method: In order to examine DNA damage directly, the comet assay was used next. The comet assay is a single cell gel electrophoresis assay in which damaged DNA migrates to form a “comet tail” that is proportional to the amount of DNA damage (Collins, A. R. (2004) “The comet assay for DNA damage and repair: principles, applications, and limitations” Mol Biotechnol, vol. 26, p. 249-261). Cells were incubated with ADR for 24 h and were harvested and processed for the comet assay. […] We then investigated whether elevated DNA damage has caused chromosome instability. […]
After treatment with ADR, cells were incubated with cytochalasin B (Sigma, 5 μg/ml) for an additional 22 h. […] Fixed cells were dropped onto clean slides and stained with 3 μg/ml Acridine Orange (which differentially stains cytoplasm and nucleus) (Hande, M. P., et al. (1996) “Induction and persistence of cytogenetic damage in mouse splenocytes following whole-body X-irradiation analysed by fluorescence in situ hybridization. II. Micronuclei.” Int J Radiat Biol.; vol. 70(4), p. 375-83; Hande, M. P., et al. (1997) “Induction and persistence of cytogenetic damage in mouse splenocytes following whole-body X-irradiation analysed by fluorescence in situ hybridization. III. Chromosome malsegregation/aneuploidy” Mutagenesis, vol. […] One thousand binucleated cells were scored for each sample.

Turning to `COc1cccc2c1C(=O)c1c(O)c3c(c(O)c1C2=O)C[C@@](O)(C(=O)CO)C[C@@H]3O[C@H]1C[C@H](N)[C@H](O)[C@H](C)O1` [ADR, adriamycin], the micronucleus frequency result is “increased micronucleus frequency”.
